Source: patent US12577226B2, “Compounds for treating Huntington's disease” (PTC THERAPEUTICS, INC., priority 2019, dated 2026)

tested on: Endogenous Huntingtin Protein (capture with MW1 (expanded polyglutamine) or MAB2166 antibody); test: Endogenous Huntingtin Protein Assay (ELISA-based Meso Scale Discovery electrochemiluminescence assay); format: cell-based; conditions: MSD electrochemiluminescence platform
Description: Compounds of Formula (I), Formula (II), or Formula (III) were tested using the Meso Scale Discovery (MSD) Assay provided in International Application No. PCT/US2016/066042, filed on Dec. 11, 2016 and claiming priority to U.S. Provisional Application U.S. 62/265,652 filed on Dec. 10, 2015, the entire contents of which are incorporated herein by reference.
The Endogenous Huntingtin Protein assay used in Example 1 was developed using the ELISA-based MSD electrochemiluminescence assay platform.
Meso Scale Discovery (MSD) 96-well or 384-well plates were coated overnight at 4° C. with MW1 (expanded polyglutamine) or MAB2166 monoclonal antibody (for capture) at a concentration of 1 μg/mL in PBS (30 μL per well). Plates were then washed three times with 300 μL wash buffer (0.05% Tween-20 in PBS) and blocked (100 μL blocking buffer; 5% BSA in PBS) for 4-5 hours at room temperature with rotational shaking and then washed three times with wash buffer.
Samples (25 μL) were transferred to the antibody-coated MSD plate and incubated overnight at 4° C. After removal of the lysates, the plate was washed three times with wash buffer, and 25 μL of #5656S (Cell signaling; rabbit monoclonal) secondary antibody (diluted to 0.25 μg/mL in 0.05% Tween-20 in blocking buffer) was added to each well and incubated with shaking for 1 Hour at room temperature. Following incubation with the secondary antibody, the wells were rinsed with wash buffer after which 25 μL of goat anti-rabbit SULFO TAG secondary detection antibody (required aspect of the MSD system) (diluted to 0.25 μg/mL in 0.05% Tween-20 in blocking buffer) was added to each well and incubated with shaking for 1 hour at room temperature. After rinsing three times with wash buffer, 150 μL of read buffer T with surfactant (MSD) were added to each empty well, and the plate was imaged on a SI 6000 imager (MSD) according to manufacturers' instructions provided for 96- or 384-well plates.

Molecule | IC50
2-(6-{[(3R,4S)-3-fluoro-2,2,6,6-tetramethylpiperidin-4-yl]oxy}pyridazin-3-yl)-5-(imidazo[1,2-a]pyrazin-6-yl)pyridin-3-ol and 2-(6-{[(3S,4R)-3-fluoro-2,2,6,6-tetramethylpiperidin-4-yl]oxy}pyridazin-3-yl)-5-(imidazo[1,2-a]pyrazin-6-yl)pyridin-3-ol [Compound 66] | 0.1 to 0.5 µM
CN(c1ncc(-c2ncc(-n3nccn3)cc2O)nn1)C1CC(C)(C)NC(C)(C)C1 [Compound 144, 2-{3-[methyl(2,2,6,6-tetramethylpiperidin-4-yl)amino]-1,2,4-triazin-6-yl}-5-(2H-1,2,3-triazol-2-yl)pyridin-3-ol] | ≤ 0.1 µM
CN(c1ncc(-c2ncc(-c3cn[nH]c3F)cc2O)nn1)C1CC(C)(C)NC(C)(C)C1 [Compound 143, 5-(5-fluoro-1H-pyrazol-4-yl)-2-{3-[methyl(2,2,6,6-tetramethylpiperidin-4-yl)amino]-1,2,4-triazin-6-yl}pyridin-3-ol] | 0.1 to 0.5 µM
CCc1cc(-c2cnc(-c3cnc(N4CC[C@@H](NC(C)(C)C)C4)nn3)c(O)c2)cn2cc(C)nc12 [Compound 148, 2-{3-[(3R)-3-(tert-butylamino)pyrrolidin-1-yl]-1,2,4-triazin-6-yl}-5-(8-ethyl-2-methylimidazo[1,2-a]pyridin-6-yl)pyridin-3-ol] | 0.1 to 0.5 µM
CC1(C)CC(Oc2ncc(-c3ncc(-c4cn[nH]c4)cc3O)nn2)CC(C)(C)N1 [Compound 141, 5-(1H-pyrazol-4-yl)-2-{3-[(2,2,6,6-tetramethylpiperidin-4-yl)oxy]-1,2,4-triazin-6-yl}pyridin-3-ol] | 0.5 to 1 µM
CC(C)[C@H]1CN(c2ncc(-c3ncc(-n4nccn4)cc3O)nn2)CCN1 [Compound 156, 2-{3-[(3S)-3-(propan-2-yl)piperazin-1-yl]-1,2,4-triazin-6-yl}-5-(2H-1,2,3-triazol-2-yl)pyridin-3-ol] | 0.1 to 0.5 µM
2-(6-{[(3R,4S)-3-fluoro-2,2,6,6-tetramethylpiperidin-4-yl]oxy}pyridazin-3-yl)-5-(2-methylimidazo[1,2-a]pyrimidin-6-yl)pyridin-3-ol and 2-(6-{[(3S,4R)-3-fluoro-2,2,6,6-tetramethylpiperidin-4-yl]oxy}pyridazin-3-yl)-5-(2-methylimidazo[1,2-a]pyrimidin-6-yl)pyridin-3-ol [Compound 54] | ≤ 0.1 µM
C[C@]12CC[C@](C)(C[C@@H](Oc3ccc(-c4ncc(-c5cncnc5)cc4O)nn3)C1)N2 [Compound 36, 2-(6-{[(1R,3s,5S)-1,5-dimethyl-8-azabicyclo[3.2.1]octan-3-yl]oxy}pyridazin-3-yl)-5-(pyrimidin-5-yl)pyridin-3-ol and 2-(6-{[(1S,3r,5R)-1,5-dimethyl-8-azabicyclo[3.2.1]octan-3-yl]oxy}pyridazin-3-yl)-5-(pyrimidin-5-yl)pyridin-3-ol] | 0.5 to 1 µM
CN(c1cnc(-c2ncc(-c3cn[nH]c3)cc2O)nn1)C1CC(C)(C)NC(C)(C)C1 [Compound 162, 2-{6-[methyl(2,2,6,6-tetramethylpiperidin-4-yl)amino]-1,2,4-triazin-3-yl}-5-(1H-pyrazol-4-yl)pyridin-3-ol] | ≤ 0.1 µM
[2H]C([2H])([2H])n1cc(-c2cnc(-c3cnc(N(C)C4CC(C)(C)NC(C)(C)C4)nn3)c(O)c2)cn1 [Compound 142, 5-[1-(^2H3)methyl-1H-pyrazol-4-yl]-2-{3-[methyl(2,2,6,6-tetramethylpiperidin-4-yl)amino]-1,2,4-triazin-6-yl}pyridin-3-ol] | ≤ 0.1 µM
CC1(C)C[C@H](Nc2ccc(-c3ncc(-c4cn[nH]c4)cc3O)nn2)[C@@H](F)C(C)(C)N1 [Compound 8, 2-(6-{[(3R,4S)-3-fluoro-2,2,6,6-tetramethylpiperidin-4-yl]amino}pyridazin-3-yl)-5-(1H-pyrazol-4-yl)pyridin-3-ol] | ≤ 0.1 µM
[2H]C([2H])([2H])n1cc(-c2cnc(-c3ccc(OC4CC(C)(C)NC5(CC5)C4)nn3)c(O)c2)cn1 (centres unmarked) [Compound 75, 2-{6-[(5,5-dimethyl-4-azaspiro[2.5]octan-7-yl)oxy]pyridazin-3-yl}-5-[1-(^2H3)methyl-1H-pyrazol-4-yl]pyridin-3-ol] | ≤ 0.1 µM

Next, values leading:

IC50 | Molecule
≤ 0.1 µM | CC1(C)C[C@H](Oc2ccc(-c3ncc(-c4cn[nH]c4)cc3O)nn2)[C@H](F)C(C)(C)N1 (single isomer, unassigned) [Compound 51, 2-(6-{[(3R,4S)-3-fluoro-2,2,6,6-tetramethylpiperidin-4-yl]oxy}pyridazin-3-yl)-5-(1H-pyrazol-4-yl)pyridin-3-ol or 2-(6-{[(3S,4R)-3-fluoro-2,2,6,6-tetramethylpiperidin-4-yl]oxy}pyridazin-3-yl)-5-(1H-pyrazol-4-yl)pyridin-3-ol]
≤ 0.1 µM | [2H]C([2H])([2H])n1cc(-c2cnc(-c3ccc(N4CCC(NC(C)(C)C)C4)nn3)c(O)c2)cn1 (centres unmarked) [Compound 29, 2-{6-[3-(tert-butylamino)pyrrolidin-1-yl]pyridazin-3-yl}-5-[1-(^2H3)methyl-1H-pyrazol-4-yl]pyridin-3-ol]
≤ 0.1 µM | Oc1cc(-c2cn[nH]c2)cnc1-c1ccc(N2CCNC(C3CC3)C2)nn1 (centres unmarked) [Compound 123, 2-[6-(3-cyclopropylpiperazin-1-yl)pyridazin-3-yl]-5-(1H-pyrazol-4-yl)pyridin-3-ol]
≤ 0.1 µM | CCC1CN(c2ccc(-c3ncc(-c4cc(F)c5nn(C)cc5c4)cc3O)nn2)CCN1 (centres unmarked) [Compound 120, 2-[6-(3-ethylpiperazin-1-yl)pyridazin-3-yl]-5-(7-fluoro-2-methyl-2H-indazol-5-yl)pyridin-3-ol]
≤ 0.1 µM | Cn1cc2cc(-c3cnc(-c4ccc(N5CCNC6(CC6)C5)nn4)c(O)c3)cc(F)c2n1 [Compound 98, 2-[6-(4,7-diazaspiro[2.5]octan-7-yl)pyridazin-3-yl]-5-(7-fluoro-2-methyl-2H-indazol-5-yl)pyridin-3-ol]
≤ 0.1 µM | Cc1cn2nc(-c3cnc(-c4ccc(O[C@@H]5CC(C)(C)NC(C)(C)[C@@H]5F)nn4)c(O)c3)cc(C#N)c2n1.Cc1cn2nc(-c3cnc(-c4ccc(O[C@H]5CC(C)(C)NC(C)(C)[C@H]5F)nn4)c(O)c3)cc(C#N)c2n1 (mixture of isomers) [Compound 68, 6-[6-(6-{[(3R,4S)-3-fluoro-2,2,6,6-tetramethylpiperidin-4-yl]oxy}pyridazin-3-yl)-5-hydroxypyridin-3-yl]-2-methylimidazo[1,2-b]pyridazine-8-carbonitrile and 6-[6-(6-{[(3S,4R)-3-fluoro-2,2,6,6-tetramethylpiperidin-4-yl]oxy}pyridazin-3-yl)-5-hydroxypyridin-3-yl]-2-methylimidazo[1,2-b]pyridazine-8-carbonitrile]
≤ 0.1 µM | [2H]C([2H])([2H])Oc1cc(-c2cnc(-c3ccc(N[C@@H]4CC(C)(C)NC(C)(C)[C@@H]4F)nn3)c(O)c2)ncn1 [Compound 25, 2-(6-{[(3R,4R)-3-fluoro-2,2,6,6-tetramethylpiperidin-4-yl]amino}pyridazin-3-yl)-5-{6-[(^2H3)methyloxy]pyrimidin-4-yl}pyridin-3-ol]
≤ 0.1 µM | 2-(6-{[(3R,4R)-3-fluoro-2,2,6,6-tetramethylpiperidin-4-yl]amino}pyridazin-3-yl)-5-[1-(^2H3)methyl-1H-pyrazol-4-yl]pyridin-3-ol or 2-(6-{[(3S,4S)-3-fluoro-2,2,6,6-tetramethylpiperidin-4-yl]amino}pyridazin-3-yl)-5-[1-(^2H3)methyl-1H-pyrazol-4-yl]pyridin-3-ol [Compound 19]
